Patent US6410556B1, “Modulators of protein tyrosine phosphateses (PTPases)” (Novo Nordisk A/S, priority 1999, dated 2002)

biological target: T1, truncated form of PTP1B (first 321 amino acids) (Homo sapiens, UniProt P18031); assay: Inhibition of PTP1B, p-nitrophenyl phosphate substrate, enzyme kinetic analysis; type: biochemical; conditions: truncated PTP1B expressed in E. coli; substrate p-nitrophenyl phosphate 0.16 to 10 mM; 50 mM HEPES pH 7.0; 25° C., 60 minutes
T1 construct: a truncated form of PTPI B (corresponding to the first 321 amino acids); made in house; host or cells: E. coli
T1 sequence (P18031 1-321 limits assumed): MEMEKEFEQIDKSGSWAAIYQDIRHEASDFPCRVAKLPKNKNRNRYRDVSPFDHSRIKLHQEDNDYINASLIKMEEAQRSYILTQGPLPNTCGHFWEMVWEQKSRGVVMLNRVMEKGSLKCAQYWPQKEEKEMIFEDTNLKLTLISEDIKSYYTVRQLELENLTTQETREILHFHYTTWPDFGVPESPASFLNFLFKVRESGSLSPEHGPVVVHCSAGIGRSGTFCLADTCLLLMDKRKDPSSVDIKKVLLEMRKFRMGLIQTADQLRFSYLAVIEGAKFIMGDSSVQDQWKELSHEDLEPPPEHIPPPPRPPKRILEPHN
Method: The compounds are evaluated for biological activity with a truncated form of PTPI B (corresponding to the first 321 amino acids), which was expressed in E. coli and purified to apparent homogeneity using published procedures well-known to those skilled in the art. The enzyme reactions are carried out using standard conditions essentially as described by Burke et al. (Biochemistry 35; 15989-15996 (1996)). The assay conditions are as follows. Appropriate concentrations of the compounds of the invention are added to the reaction mixtures containing different concentrations of the substrate, p-nitrophenyl phosphate (range: 0.16 to 10 mM—final assay concentration). The buffer used was 50 mM HEPES pH 7.0, 100 mM sodium chloride, 0.1% (w/v) bovine serum albumin, 5 mM glutathione, and 1 mM EDTA. The reaction was started by addition of the enzyme and carried out in microtiter plates at 25° C. for 60 minutes. The reactions are stopped by addition of NaOH. The enzyme activity was determined by measurement of the absorbance at 405 nm with appropriate corrections for absorbance at 405 nm of the compounds and p-nitrophenyl phosphate. The data are analyzed using nonlinear regression fit to classical Michaelis Menten enzyme kinetic models. Inhibition is expressed as Ki values in nM.

Ki [nM]	Structure (SMILES)
220	CC(=O)N(Cc1ccc(Oc2ccccc2)cc1)C[C@@H]1NCCc2c1sc(NC(=O)C(=O)O)c2C(=O)O [Example 42, 7-(S)-((Acetyl-(4-phenoxy-benzyl)amino)methyl)-2-(oxalyl-amino)-4,5,6,7-tetrahydro-thieno[2,3-c]pyridine-3-carboxylic acid]
830	O=C(O)C(=O)Nc1sc2c(c1C(=O)O)CC(CNC(=O)C(=O)c1c[nH]c3ccccc13)NC2 (stereo not shown) [Example 36, 5-((2-(1H-indol-3-yl)-2-oxo-acetylamino)methyl)-2-(Oxalyl-amino)-4,5,6,7-tetrahydro-thieno[2,3-c]pyridine-3-carboxylic acid]
300	COC(=O)c1cc(OC)cc2c1CN(CC1Cc3c(sc(NC(=O)C(=O)O)c3C(=O)O)CN1)C2=O (stereo not shown) [Example 46, 5-(6-Methoxy-4-methoxycarbonyl-1-oxo-1 ,3-dihydro-isoindol-2-ylmethyl)-2-(oxalyl-amino)-4,5,6,7-tetrahydro-thieno[2,3-c]pyridine-3-carboxylic acid]

The remaining lines, values behind:

Structure (SMILES)	Ki [nM]
O=C(O)C(=O)Nc1sc2c(c1C(=O)O)CC(CNC1=NS(=O)(=O)c3ccccc31)NC2 (stereo not shown) [Example 10, 5-((1,1-Dioxo-1H-benzo[d]isothiazol-3-ylamino)methyl)-2-(oxalyl-amino)-4,5,6,7-tetrahydro-thieno[2,3-c]pyridine-3-carboxylic acid]	270
O=C(O)C(=O)Nc1sc2c(c1C(=O)O)CC(CN1Cc3c(O)cccc3C1=O)NC2 (stereo not shown) [Example 8, 5-(4-Hydroxy-1-oxo-1,3-dihydro-isoindol-2-ylmethyl)-2-(oxalyl-amino)-4,5,6,7-tetrahydro-thieno[2,3-c]pyridine-3-carboxylic acid]	250
COc1cccc2c1C(=O)N(CC1Cc3c(sc(NC(=O)C(=O)O)c3C(=O)O)CN1)C2 (stereo not shown) [Example 12, 5-(7-Methoxy-1-oxo-1,3-dihydro-isoindol-2-ylmethyl)-2-(oxalyl-amino)-4,5,6,7-tetrahydro-thieno[2,3-c]pyridine-3-carboxylic acid]	570
O=C(O)C(=O)Nc1sc2c(c1C(=O)O)CCNC2CNC1=NS(=O)(=O)c2ccccc21 (stereo not shown) [Example 11, 7-((1,1-Dioxo-1H-benzo[d]isothiazol-3-ylamino)methyl)-2-(oxalyl-amino)-4,5,6,7-tetrahydro-thieno[2,3-c]pyridine-3-carboxylic acid]	240
